Data: patent US20110154724A1, “FATTY ESTER COMPOSITIONS WITH IMPROVED OXIDATIVE STABILITY” (TAMINCO, priority 2008, published 2011)

How the values were obtained:
[1] = Rancimat oxidative stability (EN 14112) of biodiesel with additives; type: physicochemical; conditions: for Rancimat oxidative stability: untreated 5.1 hours, EN 14112
Description: The oxidative stability of biodiesel is an important property thereof and is subjected to criteria which may differ from country to country. In the US, oxidative testing of biodiesel is done according to ASTM 6751-08 whereby the B100 (100% biodiesel) must pass a minimum of three hours oxidative stability as done by the Rancimat test. The European oxidation criteria is a minimum of six hours as per EN 14112. Some commercial biodiesel manufacturers and blenders require even eight hours oxidative stability to ensure that B100 biodiesel stored for prolonged periods of time will be suitable for commerce.
Use was made in this example of a pure soy-biodiesel (methyl ester of soy oil) from a commercial source having a Rancimat oxidative stability (tested in accordance with EN 14112) of 5.1 hours.

[2] = 25° C.; cited from earlier work
[3] = Solubility tests of antioxidant package components in alkanolamine / hydroxylamine; type: physicochemical
Method: Additionally, 2 grams of octyldiethanolamine (ODEA) was added to the additive mixture.

[4] = 450 ppm added to B100 soy-biodiesel

For CCCCN(CCO)CCO [BDEA, butyldiethanolamine], the oxidation stability ([1]; 250 ppm added to a different sample of soy methyl ester) was 3.5 h and the Rancimat oxidative stability [1, 4] was 6.1 h.

For CCN(O)CC [Diethylhydroxylamine, diethylhydroxylamine], the vapor pressure [2] is listed as 32 Torr.

For CCCOC(=O)c1cc(O)c(O)c(O)c1 [propyl gallate], the “solubility in OAE” value ([3]; 0.5 grams 4-HT along with 1 gram propyl gallate into 15 grams OAE) was “completely soluble”.

With CC1(C)CC(O)CC(C)(C)N1[O] [4-HT, 4-hydroxy-2,2,6,6-tetramethylpiperidino-1-oxy] the Rancimat oxidative stability ([1]; 50 ppm added to B100 soy-biodiesel) was 5.5 h.

For CCCCCCCCN(CCO)CCO [ODEA, octyldiethanolamine], the “solubility in anhydrous DEHA” value ([3]; 0.5 grams 4-HT into 7.5 grams anhydrous DEHA, additionally 2 grams ODEA) was “completely soluble” and the Rancimat oxidative stability [1, 4] was 8.3 h.
